Experimental data taken from ChEMBL document CHEMBL3885881, “DrugMatrix”.

Organism: Rattus norvegicus
Assay: DrugMatrix - Regimen: Daily Repeat
Format: toxicity, organism-based, Sprague-Dawley
Design: regimen Daily Repeat, gender Male, age 6-8 weeks
Details: in vivo, vehicle 100 % SALINE; for ABSOLUTE MONOCYTE / ABSOLUTE SEGMENTED NEUTROPHIL / BASOPHIL / EOSINOPHIL / ERYTHROCYTE COUNT / HEMATOCRIT / HEMOGLOBIN / LEUKOCYTE COUNT / LYMPHOCYTE / MEAN CORPUSCULAR HEMOGLOBIN / MEAN CORPUSCULAR HEMOGLOBIN CONCENTRATION / MEAN CORPUSCULAR VOLUME / MONOCYTE / NEUTROPHIL / PLATELET COUNT / ABSOLUTE BASOPHIL / ABSOLUTE EOSINOPHIL / ABSOLUTE LYMPHOCYTE: tissue Blood; for ALANINE AMINOTRANSFERASE / ALBUMIN / ALKALINE PHOSPHATASE / ASPARTATE AMINOTRANSFERASE / BLOOD UREA NITROGEN / CHLORIDE / CHOLESTEROL / CREATINE PHOSPHOKINASE / CREATININE / GLUCOSE / LACTATE DEHYDROGENASE / LIPASE / PHOSPHORUS / POTASSIUM / SODIUM / TOTAL BILIRUBIN / TOTAL PROTEIN / URIC ACID: tissue Plasma
[1] = ip, 160 mg/kg, 120 h, route intraperitoneal, dose level High, time 5 day
[2] = ip, 160 mg/kg, […], route intraperitoneal, dose level High, time 14 day
[3] = ip, 160 mg/kg, […], route intraperitoneal, dose level High, time 28 day
[4] = iv, 0 mg/kg, 72 h, dose level Control, time 3 day

## NCC[C@H](O)C(=O)N[C@@H]1C[C@H](N)[C@@H](O[C@H]2O[C@H](CN)[C@@H](O)[C@H](O)[C@H]2O)[C@H](O)[C@H]1O[C@H]1O[C@H](CO)[C@@H](O)[C@H](N)[C@H]1O [AMIKACIN]
[1]
  ABSOLUTE MONOCYTE: 130 cells/µL
  ABSOLUTE SEGMENTED NEUTROPHIL: 830 cells/µL
  BASOPHIL: 0.52%
  EOSINOPHIL: 0.92%
  ERYTHROCYTE COUNT: 7.72 x10E6/uL
  HEMATOCRIT: 47.66%
  HEMOGLOBIN: 15.46 G/DL
  LEUKOCYTE COUNT: 8.36 x10E3/uL
  LYMPHOCYTE: 86.2%
  MEAN CORPUSCULAR HEMOGLOBIN: 20.02 pg
  MEAN CORPUSCULAR HEMOGLOBIN CONCENTRATION: 32.44 G/DL
  MEAN CORPUSCULAR VOLUME: 61.7 fL
  MONOCYTE: 1.62%
  NEUTROPHIL: 10.4%
  PLATELET COUNT: 1365.6 x10E3/uL
  ALANINE AMINOTRANSFERASE: 28.8 u/L
  ALBUMIN: 3.56 G/DL
  ALKALINE PHOSPHATASE: 209.4 u/L
  ASPARTATE AMINOTRANSFERASE: 80.6 u/L
  BLOOD UREA NITROGEN: 14.6 mg/dL
  CHLORIDE: 107.2 MEQ/L
  CHOLESTEROL: 62.4 mg/dL
  CREATINE PHOSPHOKINASE: 231.2 u/L
  CREATININE: 0.56 mg/dL
  GLUCOSE: 136.6 mg/dL
  LACTATE DEHYDROGENASE: 109.8 u/L
  LIPASE: 23.8 u/L
  PHOSPHORUS: 11.74 mg/dL
  POTASSIUM: 5.46 MEQ/L
  SODIUM: 147 MEQ/L
  TOTAL BILIRUBIN: 0.22 mg/dL
  TOTAL PROTEIN: 6.1 G/DL
  URIC ACID: 1.12 mg/dL
[2]
  ABSOLUTE BASOPHIL: 120 cells/µL
  ABSOLUTE EOSINOPHIL: 120 cells/µL
  ABSOLUTE LYMPHOCYTE: 10400 cells/µL
  ABSOLUTE MONOCYTE: 290 cells/µL
  ABSOLUTE SEGMENTED NEUTROPHIL: 1840 cells/µL
  BASOPHIL: 0.88%
  EOSINOPHIL: 0.88%
  ERYTHROCYTE COUNT: 7.68 x10E6/uL
  HEMATOCRIT: 45.32%
  HEMOGLOBIN: 14.88 G/DL
  LEUKOCYTE COUNT: 12.88 x10E3/uL
  LYMPHOCYTE: 80.34%
  MEAN CORPUSCULAR HEMOGLOBIN: 19.4 pg
  MEAN CORPUSCULAR HEMOGLOBIN CONCENTRATION: 32.88 G/DL
  MEAN CORPUSCULAR VOLUME: 59.02 fL
  MONOCYTE: 2.26%
  NEUTROPHIL: 15.14%
  PLATELET COUNT: 1513.4 x10E3/uL
  ALANINE AMINOTRANSFERASE: 30.4 u/L
  ALBUMIN: 3.44 G/DL
  ALKALINE PHOSPHATASE: 190.6 u/L
  ASPARTATE AMINOTRANSFERASE: 79.6 u/L
  BLOOD UREA NITROGEN: 13 mg/dL
  CHLORIDE: 107.8 MEQ/L
  CHOLESTEROL: 70.8 mg/dL
  CREATINE PHOSPHOKINASE: 151.2 u/L
  CREATININE: 0.5 mg/dL
  GLUCOSE: 119.8 mg/dL
  LACTATE DEHYDROGENASE: 78.6 u/L
  LIPASE: 32 u/L
  PHOSPHORUS: 9.94 mg/dL
  POTASSIUM: 5.62 MEQ/L
  SODIUM: 150.6 MEQ/L
  TOTAL BILIRUBIN: 0.2 mg/dL
  TOTAL PROTEIN: 6.18 G/DL
  URIC ACID: 0.66 mg/dL
[3]
  ABSOLUTE BASOPHIL: 97 cells/µL
  ABSOLUTE EOSINOPHIL: 87 cells/µL
  ABSOLUTE LYMPHOCYTE: 9100 cells/µL
  ABSOLUTE MONOCYTE: 180 cells/µL
  ABSOLUTE SEGMENTED NEUTROPHIL: 1340 cells/µL
  BASOPHIL: 0.88%
  EOSINOPHIL: 0.84%
  ERYTHROCYTE COUNT: 7.95 x10E6/uL
  HEMATOCRIT: 44.83%
  HEMOGLOBIN: 14.88 G/DL
  LEUKOCYTE COUNT: 10.86 x10E3/uL
  LYMPHOCYTE: 83.57%
  MEAN CORPUSCULAR HEMOGLOBIN: 18.72 pg
  MEAN CORPUSCULAR HEMOGLOBIN CONCENTRATION: 33.24 G/DL
  MEAN CORPUSCULAR VOLUME: 56.35 fL
  MONOCYTE: 1.64%
  NEUTROPHIL: 12.66%
  PLATELET COUNT: 1439.3 x10E3/uL
  ALANINE AMINOTRANSFERASE: 29.6 u/L
  ALBUMIN: 3.6 G/DL
  ALKALINE PHOSPHATASE: 128.89 u/L
  ASPARTATE AMINOTRANSFERASE: 84.7 u/L
  BLOOD UREA NITROGEN: 17.7 mg/dL
  CHLORIDE: 105.6 MEQ/L
  CHOLESTEROL: 62.1 mg/dL
  CREATINE PHOSPHOKINASE: 292.2 u/L
  CREATININE: 0.65 mg/dL
  GLUCOSE: 136.2 mg/dL
  LACTATE DEHYDROGENASE: 129.6 u/L
  LIPASE: 17.1 u/L
  PHOSPHORUS: 10.04 mg/dL
  POTASSIUM: 6.81 MEQ/L
  SODIUM: 152.5 MEQ/L
  TOTAL BILIRUBIN: 0.26 mg/dL
  TOTAL PROTEIN: 6.48 G/DL
  URIC ACID: 1.45 mg/dL
[4]
  ABSOLUTE BASOPHIL: 0 CELLS/uL
  ABSOLUTE EOSINOPHIL: 0 CELLS/uL
  ABSOLUTE LYMPHOCYTE: 7637.67 CELLS/uL
  ABSOLUTE MONOCYTE: 67.83 CELLS/uL
  ABSOLUTE SEGMENTED NEUTROPHIL: 661.17 CELLS/uL
  BASOPHIL: 0%
